For data set [1] the following is noted: dogs; cited from earlier work.
For data set [2] the following is noted: sheep; cited from earlier work.
The conditions of data set [3]: oral, 0.5 and 2.0 mg/kg/12 hours, 36 days; increase of four times the original dose; cited from earlier work.
The conditions of data set [4]: pigs; cited from earlier work.
The conditions of data set [5]: in vivo; cited from earlier work.
For data set [6] the following is noted: cows; cited from earlier work.
A further data set can be described thus: in vivo. To be noted: dog. On the procedure:
In a period not longer than 2 hours, all of the samples were sent to the Laboratory, where they were centrifuged, and their plasma separated and frozen to −20° C. until the samples were quantified.

The conditions of data set [7]: subcutaneous administration, 5 mg/kg, Xie et al. 2011; cited from earlier work.
The conditions of data set [8]: cited from earlier work.
The conditions of data set [9]: percutaneous, cats (Sarasola, 2002); cited from earlier work.
The conditions of data set [10]: percutaneous, dogs (Sarasola, 2002); cited from earlier work.
[11] abbreviates: Plasma concentrations of Praziquantel.

This is an account of results in patent US10695331B2, “Veterinary composition comprising imidacloprid, moxidectin and praziquantel for cutaneous topical application (spot on), for the treatment and prevention of ecto and endoparasitoses affecting dogs” (LABYES USA, LLC, priority 2016, dated 2020).

Like-named read-outs stand apart in the source and are kept apart here.

`CO/N=C1\C[C@]2(C[C@@H]3C[C@@H](C/C=C(\C)C[C@@H](C)/C=C/C=C4\CO[C@@H]5[C@H](O)C(C)=C[C@@H](C(=O)O3)[C@]45O)O2)O[C@H](/C(C)=C/C(C)C)[C@H]1C` [Moxidectin]: the half-life of elimination in data set [1] is 43.2 h; in data set [2] it was 64.8 h; in [4], 12 h; in data set [6], 67.2 h. Further, the “average increase of the concentrations in plasma” value in data set [3] is listed as “more than 8 times”. In addition, the “time of plasma spikes” value in [5] was 3 to 5 h.
`O=C(C1CCCCC1)N1CC(=O)N2CCc3ccccc3C2C1` (stereo not shown) [Praziquantel]: the “Plasma concentrations of Praziquantel” value in the data set “in vivo” (0 h) is 0.0 ng/mL. Also, the “time up to which plasma concentrations are detectable” value in “in vivo” (14.5 mg/kg) is “up to 48 hours”. In the data set “in vivo” (setting [11]), this compound showed a concentration at 0 h of 0 ng/mL and a concentration at 6 h of 63.7 ng/mL. In “in vivo” (topical or ocular, 14.5 mg/kg), the “AUC/inf, Max” value was 1321; the “AUC/inf, Min” value amounted to 626.6; the “CMAX, Min” value was found to be 38.6 ng/mL; the “TMAX, Min” value turned out to be 4 h. In addition, in “in vivo” (topical or ocular, 14.5 mg/kg), the Tmax came to 4 h. This compound also registered an AUC in the data set “in vivo” (topical or ocular, 14.5 mg/kg, AUC/inf, Median) of 997 ng·h/mL. Also, the Cmax in the data set “in vivo” (topical or ocular, 14.5 mg/kg, Max) came out at 77.6 ng/mL. In addition, the concentration in “in vivo” (topical or ocular, 14.5 mg/kg, Median) peaked (Cmax) at 53.9 ng/mL. Also, the Tmax in the data set “in vivo” (topical or ocular, 14.5 mg/kg, TMAX) worked out at 6 h. In addition, the Tmax in the data set “in vivo” (topical or ocular, 14.5 mg/kg, TMAX, Median) worked out at 5 h. The Tmax in “in vivo” (topical or ocular, 14.5 mg/kg, Tmax range) was in the range of 4 to 6 h. Also, in data set [7], the Cmax is 47.82 ng/mL, the Tmax was 1.45 h and the “plasma values after 48 hours” value was “below 10 ng/ml”. Besides, the “part of an oral dose excreted with no changes” value in data set [8] (oral dose) is on record as “less than 1%”. The “concentration in tissues and plasma” value in data set [8] (up to) is on record as 14-20%.
Take `CO[C@H]1C[C@H](O[C@@H]2/C(C)=C/C[C@@H]3C[C@@H](C[C@]4(CC[C@H](C)[C@@H](C5CCCCC5)O4)O3)OC(=O)[C@@H]3C=C(C)/C(=N/O)[C@H]4OC/C(=C\C=C\[C@@H]2C)[C@]43O)O[C@@H](C)[C@@H]1O` [Selamectin]: the results for the bioavailability in data set [9] and in data set [10] were 74% and 4%, respectively.
